# Patent US12655116B2, “Substituted isophthalic acid diamides” (Bayer Aktiengesellschaft, priority 2020, dated 2026)
# Columns and labels:
# ABUTH [1] = assay: Pre-emergence herbicidal action against ABUTH; assay type: in vivo, Abutilon theophrasti; details: Abutilon theophrasti, 504 h
# In short: (§1)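 Greenhouse pots of sandy loam held seeds covered with soil, onto which the compound was applied before emergence. An aqueous suspension or emulsion of WP or EC was used at 600 to 800 l/ha with 0.2% wetting agent. Percent damage was judged visually at 3 weeks.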
# ALOMY [2] = assay: Pre-emergence herbicidal action against ALOMY; assay type: in vivo, Alopecurus myosuroides; details: Alopecurus myosuroides, 504 h; 80 g/ha, pre-emergence, scored visually after 3 weeks vs untreated controls (100% = plants have died, 0% = like control plants)
# In short: as §1
# AMARE [3] = assay: Pre-emergence herbicidal action against AMARE; assay type: in vivo, Amaranthus retroflexus; details: Amaranthus retroflexus, 504 h, scored visually after 3 weeks vs untreated controls, 100% = plants have died, 0% = like control plants
# In short: as §1
# AVEFA [4] = assay: Pre-emergence herbicidal action against AVEFA; assay type: in vivo, Avena fatua; details: Avena fatua, 504 h; 80 g/ha, pre-emergence
# In short: as §1
# ECHCG [5] = assay: Pre-emergence herbicidal action against ECHCG; assay type: in vivo, Echinochloa crus-galli; details: Echinochloa crus-galli, 504 h
# In short: as §1
# LOLRI = assay: Pre-emergence herbicidal action against LOLRI; assay type: in vivo, Lolium rigidum; details: Lolium rigidum, 504 h, 80 g/ha
# In short: as §1
# MATIN [6] = assay: Pre-emergence herbicidal action against MATIN; assay type: in vivo, Matricaria inodora; details: Tripleurospermum inodorum, 504 h
# In short: as §1
# PHBPU [7] = assay: Pre-emergence herbicidal action against PHBPU; assay type: in vivo, Pharbitis purpurea; details: Ipomoea purpurea, 504 h
# In short: as §1
# POLCO [8] = assay: Pre-emergence herbicidal action against POLCO; assay type: in vivo, Polygonum convolvulus; details: Fallopia convolvulus, 504 h, dosage 80 g/ha
# In short: as §1
# SETVI [9] = assay: Pre-emergence herbicidal action against SETVI; assay type: in vivo, Setaria viridis; details: Setaria viridis, 504 h, dosage 80 g/ha
# In short: as §1
# VERPE [10] = assay: Pre-emergence herbicidal action against VERPE; assay type: in vivo, Veronica persica; details: Veronica persica, 504 h
# In short: as §1
# VIOTR [11] = assay: Pre-emergence herbicidal action against VIOTR; assay type: in vivo, Viola tricolor; details: Viola tricolor, 504 h
# In short: as §1
# DIGSA [12] = assay: Pre-emergence herbicidal action against DIGSA; assay type: in vivo, Digitaria sanguinalis; details: Digitaria sanguinalis, 504 h
# In short: as §1
# ABUTH [13] = assay: Post-emergence herbicidal action against ABUTH; assay type: in vivo, Abutilon theophrasti; details: Abutilon theophrasti, 504 h, visual assessment about 3 weeks after treatment vs untreated controls
# In short: (§2)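 A WP or EC formulation diluted in water with 0.2% wetting agent was sprayed at 600 to 800 l/ha onto one-leaf-stage plants grown in sandy loam. About 3 weeks later, action was rated visually in percent, 100% being dead plants.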
# ALOMY [14] = assay: Post-emergence herbicidal action against ALOMY; assay type: in vivo, Alopecurus myosuroides; details: Alopecurus myosuroides, 504 h, visual assessment about 3 weeks after treatment vs untreated controls
# In short: as §2
# AMARE [15] = assay: Post-emergence herbicidal action against AMARE; assay type: in vivo, Amaranthus retroflexus; details: Amaranthus retroflexus, 504 h, 20 g/ha, visual assessment about 3 weeks after treatment, 100% = plants have died, 0% = like control plants
# In short: as §2
# AVEFA [16] = assay: Post-emergence herbicidal action against AVEFA; assay type: in vivo, Avena fatua; details: Avena fatua, 504 h, 20 g/ha, visual assessment about 3 weeks after treatment, 100% = plants have died, 0% = like control plants
# In short: as §2
# ECHCG [17] = assay: Post-emergence herbicidal action against ECHCG; assay type: in vivo, Echinochloa crus-galli; details: Echinochloa crus-galli, 504 h
# In short: as §2
# MATIN [18] = assay: Post-emergence herbicidal action against MATIN; assay type: in vivo, Matricaria inodora; details: Tripleurospermum inodorum, 504 h
# In short: as §2
# PHBPU [19] = assay: Post-emergence herbicidal action against PHBPU; assay type: in vivo, Pharbitis purpurea; details: Ipomoea purpurea, 504 h, dosage 20 g/ha
# In short: as §2
# POLCO [20] = assay: Post-emergence herbicidal action against POLCO; assay type: in vivo, Polygonum convolvulus; details: Fallopia convolvulus, 504 h, dosage 20 g/ha
# In short: as §2
# SETVI [21] = assay: Post-emergence herbicidal action against SETVI; assay type: in vivo, Setaria viridis; details: Setaria viridis, 504 h, dosage 20 g/ha
# In short: as §2
# VERPE [22] = assay: Post-emergence herbicidal action against VERPE; assay type: in vivo, Veronica persica; details: Veronica persica, 504 h
# In short: as §2
# VIOTR [23] = assay: Post-emergence herbicidal action against VIOTR; assay type: in vivo, Viola tricolor; details: Viola tricolor, 504 h, 20 g/ha
# In short: as §2
# DIGSA [24] = assay: Post-emergence herbicidal action against DIGSA; assay type: in vivo, Digitaria sanguinalis; details: Digitaria sanguinalis, 504 h
# In short: as §2
smiles,measurement,setting,value
CCc1c(C(=O)Nc2nnnn2C)ccc(C(F)(F)F)c1C(=O)NC [Example 1-271],pest or weed control at 80 g/ha,"ABUTH [1]; 80 g/ha, scored visually after 3 weeks vs untreated controls (100% = plants have died, 0% = like control plants)",100%
same,pest or weed control at 20 g/ha,"ABUTH [1]; dosage 20 g/ha, scored visually after 3 weeks vs untreated controls, 100% = plants have died, 0% = like control plants, read-out: Pre-emergence action against ABUTH (herbicidal activity in percent)",100%
same,pest or weed control at 80 g/ha,ALOMY [2],90%
same,pest or weed control at 20 g/ha,AMARE [3]; 20 g/ha,100%
same,pest or weed control at 80 g/ha,AMARE [3]; 80 g/ha,100%
same,pest or weed control at 80 g/ha,AVEFA [4],80%
same,pest or weed control at 20 g/ha,ECHCG [5]; 20 g/ha,90%
same,pest or weed control at 80 g/ha,ECHCG [5]; 80 g/ha,100%
same,pest or weed control at 80 g/ha,LOLRI,100%
same,pest or weed control at 20 g/ha,MATIN [6]; dosage 20 g/ha,100%
same,pest or weed control at 80 g/ha,MATIN [6]; dosage 80 g/ha,100%
same,pest or weed control at 20 g/ha,PHBPU [7]; dosage 20 g/ha,80%
same,pest or weed control at 80 g/ha,PHBPU [7]; dosage 80 g/ha,90%
same,pest or weed control at 80 g/ha,POLCO [8],80%
same,pest or weed control at 80 g/ha,SETVI [9],100%
same,pest or weed control at 20 g/ha,VERPE [10]; dosage 20 g/ha,90%
same,pest or weed control at 80 g/ha,VERPE [10]; dosage 80 g/ha,100%
same,pest or weed control at 20 g/ha,VIOTR [11]; dosage 20 g/ha,100%
same,pest or weed control at 80 g/ha,VIOTR [11]; dosage 80 g/ha,100%
same,pest or weed control at 20 g/ha,DIGSA [12]; dosage 20 g/ha,100%
same,pest or weed control at 80 g/ha,DIGSA [12]; dosage 80 g/ha,100%
same,pest or weed control at 5 g/ha,ABUTH [13]; dosage 5 g/ha,80%
same,pest or weed control at 20 g/ha,ABUTH [13]; dosage 20 g/ha,90%
same,pest or weed control at 5 g/ha,ALOMY [14]; dosage 5 g/ha,80%
same,pest or weed control at 20 g/ha,ALOMY [14]; dosage 20 g/ha,90%
same,pest or weed control at 20 g/ha,AMARE [15],90%
same,pest or weed control at 20 g/ha,AVEFA [16],80%
same,pest or weed control at 5 g/ha,ECHCG [17]; dosage 5 g/ha,80%
same,pest or weed control at 20 g/ha,ECHCG [17]; dosage 20 g/ha,80%
same,pest or weed control at 5 g/ha,MATIN [18]; dosage 5 g/ha,90%
same,pest or weed control at 20 g/ha,MATIN [18]; dosage 20 g/ha,90%
same,pest or weed control at 20 g/ha,PHBPU [19],90%
same,pest or weed control at 20 g/ha,POLCO [20],80%
same,pest or weed control at 20 g/ha,SETVI [21],80%
same,pest or weed control at 5 g/ha,VERPE [22]; 5 g/ha,80%
same,pest or weed control at 20 g/ha,VERPE [22]; 20 g/ha,90%
same,pest or weed control at 20 g/ha,VIOTR [23],90%
same,pest or weed control at 5 g/ha,DIGSA [24]; 5 g/ha,90%
same,pest or weed control at 20 g/ha,DIGSA [24]; 20 g/ha,100%
